How the values were obtained:
MCF7 [1] = experiment: Induction of apoptosis in human MCF7 cells incubated for 24 hrs by Annexin V-FITC/PI double staining based flow cytometry analysis; type: functional, cell-based
MCF7 [2] = experiment: Suppression of mitochondrial membrane potential in human MCF7 cells assessed as green fluorescent cells level at 4 uM incubated for 12 hrs by rhodamine-123 dye based flow cytometry analysis (reference value: 0.29%); type: functional
MCF7 [3] = experiment: Induction of apoptosis in human MCF7 cells assessed as late apoptotic cells level at 4 uM incubated for 24 hrs by Annexin V-FITC/PI double staining based flow cytometry analysis (reference value: 10.1%); type: functional
MCF7 [4] = experiment: Induction of apoptosis in human MCF7 cells assessed as viable cells level at 2 uM incubated for 24 hrs by Annexin V-FITC/PI double staining based flow cytometry analysis (reference value: 82%); type: functional
MCF7 [5] = experiment: Suppression of mitochondrial membrane potential in human MCF7 cells assessed as increase in green fluorescent cells incubated for 12 hrs by rhodamine-123 dye based flow cytometry analysis; type: functional, cell-based
MCF7 [6] = experiment: Suppression of mitochondrial membrane potential in human MCF7 cells assessed as red fluorescent cells level at 2 uM incubated for 12 hrs by rhodamine-123 dye based flow cytometry analysis (reference value: 99.71%); type: functional
[7] = molecular target: Fibroblast growth factor receptor 1 (Homo sapiens, UniProt P11362); experiment: Inhibition of bFGFR (unknown origin) incubated for 30 mins by enzyme immunoassay
MCF7 [8] = experiment: Induction of apoptosis in human MCF7 cells assessed as late necrotic cells level at 2 uM incubated for 24 hrs by Annexin V-FITC/PI double staining based flow cytometry analysis (reference value: 1.49%); type: functional
MCF7 [9] = experiment: Induction of apoptosis in human MCF7 cells assessed as early apoptotic cells level at 8 uM incubated for 24 hrs by Annexin V-FITC/PI double staining based flow cytometry analysis (reference value: 6.37%); type: functional
MCF7 [10] = experiment: Suppression of mitochondrial membrane potential in human MCF7 cells assessed as red fluorescent cells level at 4 uM incubated for 12 hrs by rhodamine-123 dye based flow cytometry analysis (reference value: 99.71%); type: functional
[11] = Inhibition of PDGFR (unknown origin) incubated for 30 mins by enzyme immunoassay; set-up: species or system Homo sapiens
MCF7 [12] = experiment: Induction of apoptosis in human MCF7 cells assessed as early apoptotic cells level at 4 uM incubated for 12 hrs by Annexin V-FITC/PI double staining based flow cytometry analysis (reference value: 1.06%); type: functional
MCF7 [13] = experiment: Induction of apoptosis in human MCF7 cells assessed as early apoptotic cells level at 4 uM incubated for 36 hrs by Annexin V-FITC/PI double staining based flow cytometry analysis (reference value: 1.06%); type: functional
MCF7 [14] = experiment: Induction of apoptosis in human MCF7 cells assessed as late necrotic cells level at 8 uM incubated for 24 hrs by Annexin V-FITC/PI double staining based flow cytometry analysis (reference value: 1.49%); type: functional
MCF7 [15] = experiment: Induction of apoptosis in human MCF7 cells at 4 uM by Annexin V-FITC/PI double staining based flow cytometry analysis; type: functional, cell-based; conditions: TDE = time-dependent effect
MCF7 [16] = experiment: Induction of apoptosis in human MCF7 cells assessed as viable cells level at 4 uM incubated for 24 hrs by Annexin V-FITC/PI double staining based flow cytometry analysis (reference value: 82%); type: functional
MCF7 [17] = experiment: Induction of apoptosis in human MCF7 cells assessed as late necrotic cells level at 4 uM incubated for 24 hrs by Annexin V-FITC/PI double staining based flow cytometry analysis (reference value: 1.49%); type: functional
[18] = molecular target: Epidermal growth factor receptor (Homo sapiens, UniProt P00533); experiment: Inhibition of EGFR (unknown origin) incubated for 30 mins by enzyme immunoassay
MCF7 [19] = experiment: Induction of apoptosis in human MCF7 cells assessed as viable cells level at 8 uM incubated for 24 hrs by Annexin V-FITC/PI double staining based flow cytometry analysis (reference value: 82%); type: functional
MCF7 [20] = experiment: Induction of apoptosis in human MCF7 cells assessed as viable cells level at 4 uM incubated for 12 hrs by Annexin V-FITC/PI double staining based flow cytometry analysis (reference value: 89%); type: functional
MCF7 [21] = experiment: Suppression of mitochondrial membrane potential in human MCF7 cells assessed as green fluorescent cells level at 8 uM incubated for 12 hrs by rhodamine-123 dye based flow cytometry analysis (reference value: 0.29%); type: functional
MCF7 [22] = experiment: Inhibition of cell migration of human MCF7 cells assessed as relative distance between the edges of the wound at 4 uM incubated for 24 hrs by wound healing assay (reference value: 87.55%); type: functional; set-up: scale not given: the % may be the effect or the level left
MCF7 [23] = experiment: Induction of apoptosis in human MCF7 cells assessed as late necrotic cells level at 4 uM incubated for 12 hrs by Annexin V-FITC/PI double staining based flow cytometry analysis (reference value: 6.88%); type: functional
[24] = molecular target: Vascular endothelial growth factor receptor 2 (Homo sapiens, UniProt P35968); experiment: Inhibition of VEGFR2 (unknown origin) incubated for 30 mins by enzyme immunoassay
MCF7 [25] = experiment: Induction of apoptosis in human MCF7 cells assessed as late necrotic cells level at 4 uM incubated for 24 hrs by Annexin V-FITC/PI double staining based flow cytometry analysis (reference value: 6.88%); type: functional
MCF7 [26] = experiment: Inhibition of cell migration of human MCF7 cells at 4 uM by wound healing assay; type: functional, cell-based; conditions: TDE = time-dependent effect
MCF7 [27] = experiment: Induction of apoptosis in human MCF7 cells assessed as early apoptotic cells level at 4 uM incubated for 24 hrs by Annexin V-FITC/PI double staining based flow cytometry analysis (reference value: 1.06%); type: functional
[28] = Cytotoxicity in HEK293T cells assessed as reduction in cell viability incubated for 48 hrs by MTT assay; type: cell-based, HEK-293T; conditions: human
MCF7 [29] = experiment: Suppression of mitochondrial membrane potential in human MCF7 cells assessed as red fluorescent cells level at 8 uM incubated for 12 hrs by rhodamine-123 dye based flow cytometry analysis (reference value: 99.71%); type: functional
MCF7 [30] = experiment: Induction of apoptosis in human MCF7 cells assessed as late apoptotic cells level at 4 uM incubated for 24 hrs by Annexin V-FITC/PI double staining based flow cytometry analysis (reference value: 3.1%); type: functional
HepG2 = experiment: Antiproliferative activity against human HepG2 cells assessed as inhibition of cell proliferation incubated for 48 hrs by MTT assay; type: functional, cell-based; conditions: HepG2, 48 h
MCF7 [31] = experiment: Induction of apoptosis in human MCF7 cells assessed as late apoptotic cells level at 4 uM incubated for 36 hrs by Annexin V-FITC/PI double staining based flow cytometry analysis (reference value: 3.1%); type: functional
MCF7 [32] = experiment: Induction of apoptosis in human MCF7 cells assessed as viable cells level at 4 uM incubated for 24 hrs by Annexin V-FITC/PI double staining based flow cytometry analysis (reference value: 89%); type: functional
MCF7 [33] = experiment: Induction of apoptosis in human MCF7 cells assessed as early apoptotic cells level at 2 uM incubated for 24 hrs by Annexin V-FITC/PI double staining based flow cytometry analysis (reference value: 6.37%); type: functional
HeLa = experiment: Antiproliferative activity against human HeLa cells assessed as inhibition of cell proliferation incubated for 48 hrs by MTT assay; type: functional, cell-based
MCF7 [34] = experiment: Suppression of mitochondrial membrane potential in human MCF7 cells assessed as decrease in red fluorescent cells incubated for 12 hrs by rhodamine-123 dye based flow cytometry analysis; type: functional, cell-based

Sequence of Vascular endothelial growth factor receptor 2 (P35968 whole entry): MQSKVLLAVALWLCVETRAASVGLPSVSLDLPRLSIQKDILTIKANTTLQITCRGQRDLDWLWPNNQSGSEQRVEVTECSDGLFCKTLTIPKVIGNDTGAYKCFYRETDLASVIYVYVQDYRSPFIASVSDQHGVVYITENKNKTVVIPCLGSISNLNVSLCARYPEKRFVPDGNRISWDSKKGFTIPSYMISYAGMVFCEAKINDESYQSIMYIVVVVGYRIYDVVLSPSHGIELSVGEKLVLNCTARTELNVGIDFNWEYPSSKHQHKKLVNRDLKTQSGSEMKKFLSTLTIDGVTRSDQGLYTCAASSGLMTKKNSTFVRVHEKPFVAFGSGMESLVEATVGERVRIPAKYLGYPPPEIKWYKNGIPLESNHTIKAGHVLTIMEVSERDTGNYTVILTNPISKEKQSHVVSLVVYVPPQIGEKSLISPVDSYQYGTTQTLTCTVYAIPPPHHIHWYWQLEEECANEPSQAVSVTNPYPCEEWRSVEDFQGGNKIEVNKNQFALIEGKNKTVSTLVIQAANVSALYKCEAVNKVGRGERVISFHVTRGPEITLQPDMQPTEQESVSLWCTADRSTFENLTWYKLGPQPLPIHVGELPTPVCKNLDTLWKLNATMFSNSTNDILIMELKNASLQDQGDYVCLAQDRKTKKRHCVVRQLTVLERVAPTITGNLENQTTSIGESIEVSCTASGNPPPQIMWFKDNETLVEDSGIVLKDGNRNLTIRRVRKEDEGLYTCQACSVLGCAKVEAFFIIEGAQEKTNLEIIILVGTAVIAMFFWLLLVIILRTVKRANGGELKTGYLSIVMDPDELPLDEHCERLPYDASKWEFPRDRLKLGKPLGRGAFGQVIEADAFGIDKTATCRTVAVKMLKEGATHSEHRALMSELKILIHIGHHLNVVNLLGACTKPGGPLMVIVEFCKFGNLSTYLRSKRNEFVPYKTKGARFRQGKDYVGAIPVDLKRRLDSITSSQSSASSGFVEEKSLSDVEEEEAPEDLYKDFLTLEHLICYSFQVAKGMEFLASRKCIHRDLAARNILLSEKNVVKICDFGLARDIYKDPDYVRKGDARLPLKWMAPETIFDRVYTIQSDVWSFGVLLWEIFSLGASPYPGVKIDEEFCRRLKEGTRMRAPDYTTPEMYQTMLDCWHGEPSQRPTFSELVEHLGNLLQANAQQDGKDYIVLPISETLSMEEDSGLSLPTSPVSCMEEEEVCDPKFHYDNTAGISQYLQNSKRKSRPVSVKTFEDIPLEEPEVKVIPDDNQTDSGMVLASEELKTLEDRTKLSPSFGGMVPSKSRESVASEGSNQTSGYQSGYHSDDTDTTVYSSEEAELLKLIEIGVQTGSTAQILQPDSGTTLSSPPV
Sequence of Epidermal growth factor receptor (P00533 whole entry): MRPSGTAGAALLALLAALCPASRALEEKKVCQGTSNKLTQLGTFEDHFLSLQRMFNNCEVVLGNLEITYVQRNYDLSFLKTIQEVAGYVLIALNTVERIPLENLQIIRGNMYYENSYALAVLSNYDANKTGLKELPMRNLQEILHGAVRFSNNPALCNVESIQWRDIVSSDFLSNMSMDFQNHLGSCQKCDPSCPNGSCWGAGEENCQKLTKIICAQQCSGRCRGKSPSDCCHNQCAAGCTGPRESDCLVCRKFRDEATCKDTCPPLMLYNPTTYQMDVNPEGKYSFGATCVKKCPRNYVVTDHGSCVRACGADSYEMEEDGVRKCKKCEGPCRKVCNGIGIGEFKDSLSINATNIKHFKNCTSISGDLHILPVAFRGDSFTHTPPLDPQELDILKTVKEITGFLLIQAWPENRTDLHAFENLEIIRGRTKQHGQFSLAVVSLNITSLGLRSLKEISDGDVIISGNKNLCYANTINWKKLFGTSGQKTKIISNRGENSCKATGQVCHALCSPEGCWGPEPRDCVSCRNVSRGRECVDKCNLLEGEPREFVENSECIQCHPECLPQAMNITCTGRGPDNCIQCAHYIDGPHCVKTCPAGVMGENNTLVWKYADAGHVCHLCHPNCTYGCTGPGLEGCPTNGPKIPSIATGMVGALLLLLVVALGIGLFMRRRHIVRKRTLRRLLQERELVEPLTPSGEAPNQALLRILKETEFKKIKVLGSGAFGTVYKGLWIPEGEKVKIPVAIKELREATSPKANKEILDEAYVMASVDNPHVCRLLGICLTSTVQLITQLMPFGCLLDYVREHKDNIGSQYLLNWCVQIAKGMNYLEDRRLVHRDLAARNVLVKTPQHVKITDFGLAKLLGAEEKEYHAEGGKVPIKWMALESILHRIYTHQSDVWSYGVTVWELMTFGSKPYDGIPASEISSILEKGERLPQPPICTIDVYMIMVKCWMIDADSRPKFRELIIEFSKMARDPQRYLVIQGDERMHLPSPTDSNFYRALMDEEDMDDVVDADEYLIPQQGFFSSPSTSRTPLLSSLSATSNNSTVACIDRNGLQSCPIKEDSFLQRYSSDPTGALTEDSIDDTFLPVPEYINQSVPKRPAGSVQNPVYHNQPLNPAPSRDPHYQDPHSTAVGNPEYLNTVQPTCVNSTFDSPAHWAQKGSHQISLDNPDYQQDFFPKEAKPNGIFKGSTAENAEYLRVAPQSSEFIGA
Sequence of Fibroblast growth factor receptor 1 (P11362 whole entry): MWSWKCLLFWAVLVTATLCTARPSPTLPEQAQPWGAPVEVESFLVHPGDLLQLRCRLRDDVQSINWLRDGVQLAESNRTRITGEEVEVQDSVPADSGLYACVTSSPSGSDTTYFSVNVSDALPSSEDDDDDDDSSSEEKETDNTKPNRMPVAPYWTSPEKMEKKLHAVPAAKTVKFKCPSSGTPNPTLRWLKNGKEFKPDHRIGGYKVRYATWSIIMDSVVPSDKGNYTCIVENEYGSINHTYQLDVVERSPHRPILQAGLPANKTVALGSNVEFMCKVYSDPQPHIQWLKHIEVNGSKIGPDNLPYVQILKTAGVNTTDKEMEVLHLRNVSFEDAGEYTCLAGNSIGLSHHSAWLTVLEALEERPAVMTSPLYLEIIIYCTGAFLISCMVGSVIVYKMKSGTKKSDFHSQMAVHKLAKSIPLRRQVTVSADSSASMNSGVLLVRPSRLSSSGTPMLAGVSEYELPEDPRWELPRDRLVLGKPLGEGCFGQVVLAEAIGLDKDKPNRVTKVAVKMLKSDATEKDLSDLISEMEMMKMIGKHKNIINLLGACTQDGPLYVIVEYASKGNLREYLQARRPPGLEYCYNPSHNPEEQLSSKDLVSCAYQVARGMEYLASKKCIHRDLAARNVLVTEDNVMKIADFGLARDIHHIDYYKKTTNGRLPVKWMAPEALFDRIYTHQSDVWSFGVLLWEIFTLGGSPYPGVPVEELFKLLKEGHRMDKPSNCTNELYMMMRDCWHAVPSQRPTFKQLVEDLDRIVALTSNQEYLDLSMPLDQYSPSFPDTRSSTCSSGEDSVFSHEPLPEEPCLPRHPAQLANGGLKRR

IC50 [7]: 17.2 µM
IC50 [11]: 14.1 µM
IC50 [18]: 8.77 µM
IC50 [24]: 0.34 µM
IC50 (HepG2): 2.44 µM
IC50 (HeLa): 4.57 µM
SMILES: Cc1ccc(-n2cc(NC(=O)c3cccc(NS(=O)(=O)c4ccc(Cl)cc4)c3)cn2)cc1
Activity (MCF7 [1]): Dose-dependent effect
Activity (MCF7 [2]): 19.4%
Activity (MCF7 [3]): 21.4%
Activity (MCF7 [4]): 70.3%
Activity (MCF7 [5]): Dose-dependent effect
Activity (MCF7 [6]): 87.6%
Activity (MCF7 [8]): 2.32%
Activity (MCF7 [9]): 9.62%
Activity (MCF7 [10]): 80.6%
Activity (MCF7 [12]): 22.7%
Activity (MCF7 [13]): 30.4%
Activity (MCF7 [14]): 3.76%
Activity (MCF7 [15]): Tde
Activity (MCF7 [16]): 64%
Activity (MCF7 [17]): 2.62%
Activity (MCF7 [19]): 41.4%
Activity (MCF7 [20]): 65.6%
Activity (MCF7 [21]): 37.15%
Activity (MCF7 [22]): 77.3%
Activity (MCF7 [23]): 0.349%
Activity (MCF7 [25]): 1.14%
inhibition (MCF7 [26]): Tde
Activity (MCF7 [27]): 21.6%
CC50 at 48 h [28]: 110 µM
Activity (MCF7 [29]): 62.85%
Activity (MCF7 [30]): 18.7%
Activity (MCF7 [31]): 20.9%
Activity (MCF7 [32]): 58.5%
Activity (MCF7 [33]): 9.7%
Activity (MCF7 [34]): Dose-dependent effect

From ChEMBL document CHEMBL4385653, “Design, synthesis, biological evaluation of benzoyl amide derivatives containing nitrogen heterocyclic ring as potential VEGFR-2 inhibitors” (Bioorg Med Chem, 2019)
